Assay results reported in PubChem BioAssay (NCI).
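Protocol summary: plate cells (96-well), add compound at 5 concentrations, incubate 48 h, interpolate endpoints linearly. Abbreviation: GI50, concentration required for 50% inhibition of growth. At the TGI there is no net growth.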

How the values were obtained:
Test in all cases: growth of human tumour cells (NCI), 48 h; in the data active means GI50 below about 0.43 µM; inactive means the rest
IGROV1 ovarian = system: IGROV1 ovarian
CAKI-1 renal = system: CAKI-1 renal
SNB-75 CNS = system: SNB-75 CNS
SNB-19 CNS = system: SNB-19 CNS
MDA-MB-231 breast = system: MDA-MB-231 breast
NCI-H23 lung = system: NCI-H23 lung
K-562 leukemia = system: K-562 leukemia
ACHN renal = system: ACHN renal
RXF 393 renal = system: RXF 393 renal
M14 melanoma = system: M14 melanoma
EKVX NSCLC = system: EKVX NSCLC
DU-145 prostate = system: DU-145 prostate
COLO 205 colon = system: COLO 205 colon
KM12 colon = system: KM12 colon
OVCAR-5 ovarian = system: OVCAR-5 ovarian
NCI-H522 lung = system: NCI-H522 lung
SW-620 colon = system: SW-620 colon
HL-60(TB) leukemia = system: HL-60(TB) leukemia
SF-539 CNS = system: SF-539 CNS
A498 renal = system: A498 renal
SK-MEL-2 melanoma = system: SK-MEL-2 melanoma
NCI-H460 lung = system: NCI-H460 lung
HCT-15 colon = system: HCT-15 colon
HT29 colon = system: HT29 colon
T-47D breast = system: T-47D breast
SF-268 CNS = system: SF-268 CNS
UACC-257 melanoma = system: UACC-257 melanoma
UO-31 renal = system: UO-31 renal
SK-OV-3 ovarian = system: SK-OV-3 ovarian
SR leukemia = system: SR leukemia
MDA-MB-435 = system: MDA-MB-435
NCI-H226 lung = system: NCI-H226 lung
LOX IMVI melanoma = system: LOX IMVI melanoma
SK-MEL-5 melanoma = system: SK-MEL-5 melanoma
SK-MEL-28 melanoma = system: SK-MEL-28 melanoma
U251 CNS = system: U251 CNS
HS 578T breast = system: HS 578T breast
CCRF-CEM leukemia = system: CCRF-CEM leukemia
OVCAR-8 ovarian = system: OVCAR-8 ovarian
MOLT-4 leukemia = system: MOLT-4 leukemia
BT-549 breast = system: BT-549 breast
MALME-3M melanoma = system: MALME-3M melanoma
SF-295 CNS = system: SF-295 CNS
HCT-116 colon = system: HCT-116 colon
HCC-2998 colon = system: HCC-2998 colon
OVCAR-4 ovarian = system: OVCAR-4 ovarian
UACC-62 melanoma = system: UACC-62 melanoma
OVCAR-3 ovarian = system: OVCAR-3 ovarian
SN12C renal = system: SN12C renal
PC-3 prostate = system: PC-3 prostate
TK-10 renal = system: TK-10 renal
HOP-92 NSCLC = system: HOP-92 NSCLC
NCI/ADR-RES ovarian = system: NCI/ADR-RES ovarian
786-0 renal = system: 786-0 renal
MCF7 breast = system: MCF7 breast
A549 NSCLC = system: A549 NSCLC

COC(=O)c1cc2c([nH]c3ccccc32)c(-c2nc3ccccc3cc2CO)n1
> 100 µM: TGI (IGROV1 ovarian) | TGI (CAKI-1 renal) | TGI (SNB-75 CNS) | TGI (SNB-19 CNS) | TGI (MDA-MB-231 breast) | TGI (NCI-H23 lung) | TGI (K-562 leukemia) | TGI (ACHN renal) | TGI (RXF 393 renal) | TGI (M14 melanoma) | TGI (EKVX NSCLC) | TGI (DU-145 prostate) | TGI (COLO 205 colon) | TGI (KM12 colon) | TGI (OVCAR-5 ovarian) | TGI (NCI-H522 lung) | TGI (SW-620 colon) | TGI (SF-539 CNS) | TGI (A498 renal) | TGI (SK-MEL-2 melanoma) | TGI (NCI-H460 lung) | TGI (HCT-15 colon) | TGI (HT29 colon) | TGI (T-47D breast) | TGI (SF-268 CNS) | TGI (UACC-257 melanoma) | TGI (UO-31 renal) | TGI (SK-OV-3 ovarian) | TGI (SR leukemia) | TGI (MDA-MB-435) | TGI (NCI-H226 lung) | TGI (LOX IMVI melanoma) | TGI (SK-MEL-5 melanoma) | TGI (SK-MEL-28 melanoma) | TGI (U251 CNS) | TGI (HS 578T breast) | TGI (CCRF-CEM leukemia) | TGI (OVCAR-8 ovarian) | TGI (MOLT-4 leukemia) | TGI (BT-549 breast) | TGI (MALME-3M melanoma) | TGI (SF-295 CNS) | TGI (HCT-116 colon) | TGI (HCC-2998 colon) | TGI (OVCAR-4 ovarian) | TGI (UACC-62 melanoma) | TGI (OVCAR-3 ovarian) | TGI (SN12C renal) | TGI (PC-3 prostate) | TGI (TK-10 renal) | TGI (HOP-92 NSCLC) | TGI (NCI/ADR-RES ovarian) | TGI (786-0 renal) | TGI (MCF7 breast) | TGI (A549 NSCLC)
50.2 µM: TGI (HL-60(TB) leukemia)
inactive: GI50 (IGROV1 ovarian) > 100 µM | GI50 (CAKI-1 renal) > 100 µM | GI50 (SNB-75 CNS) 40.1 µM | GI50 (SNB-19 CNS) > 100 µM | GI50 (MDA-MB-231 breast) 40 µM | GI50 (NCI-H23 lung) > 100 µM | GI50 (K-562 leukemia) > 100 µM | GI50 (ACHN renal) 30 µM | GI50 (RXF 393 renal) 21.6 µM | GI50 (M14 melanoma) > 100 µM | GI50 (EKVX NSCLC) > 100 µM | GI50 (DU-145 prostate) > 100 µM | GI50 (COLO 205 colon) > 100 µM | GI50 (KM12 colon) > 100 µM | GI50 (OVCAR-5 ovarian) > 100 µM | GI50 (NCI-H522 lung) 73 µM | GI50 (SW-620 colon) > 100 µM | GI50 (HL-60(TB) leukemia) 24.9 µM | GI50 (SF-539 CNS) 47 µM | GI50 (A498 renal) 30.4 µM | GI50 (SK-MEL-2 melanoma) > 100 µM | GI50 (NCI-H460 lung) > 100 µM | GI50 (HCT-15 colon) > 100 µM | GI50 (HT29 colon) > 100 µM | GI50 (T-47D breast) > 100 µM | GI50 (SF-268 CNS) > 100 µM | GI50 (UACC-257 melanoma) > 100 µM | GI50 (UO-31 renal) > 100 µM | GI50 (SK-OV-3 ovarian) 55.9 µM | GI50 (SR leukemia) > 100 µM | GI50 (MDA-MB-435) > 100 µM | GI50 (NCI-H226 lung) > 100 µM | GI50 (LOX IMVI melanoma) > 100 µM | GI50 (SK-MEL-5 melanoma) 50.3 µM | GI50 (SK-MEL-28 melanoma) > 100 µM | GI50 (U251 CNS) 7.1 µM | GI50 (HS 578T breast) > 100 µM | GI50 (CCRF-CEM leukemia) 25.5 µM | GI50 (OVCAR-8 ovarian) > 100 µM | GI50 (MOLT-4 leukemia) > 100 µM | GI50 (BT-549 breast) > 100 µM | GI50 (MALME-3M melanoma) > 100 µM | GI50 (SF-295 CNS) > 100 µM | GI50 (HCT-116 colon) 7.93 µM | GI50 (HCC-2998 colon) > 100 µM | GI50 (OVCAR-4 ovarian) > 100 µM | GI50 (UACC-62 melanoma) > 100 µM | GI50 (OVCAR-3 ovarian) > 100 µM | GI50 (SN12C renal) > 100 µM | GI50 (PC-3 prostate) > 100 µM | GI50 (TK-10 renal) > 100 µM | GI50 (HOP-92 NSCLC) 53.5 µM | GI50 (NCI/ADR-RES ovarian) > 100 µM | GI50 (786-0 renal) 6.2 µM | GI50 (MCF7 breast) > 100 µM | GI50 (A549 NSCLC) > 100 µM
